Assay results as given in PubChem BioAssay AID1996.
In brackets after ≈: the same amount, converted by molar mass.

Details: buffer; pH 7.4; 200.0 µM

| SMILES | solubility kinetic [µg/mL] |
| --- | --- |
| CCOC(=O)c1cn(CC)c2cc(F)c(F)cc2c1=O | > 42.2 |
| COc1ccc(C(=O)NCCONC(=O)c2ccc(OC)cc2)cc1 | 50.6 (≈ 147 µM) |
| N#C/C(=C\c1cc(Br)ccc1F)C(=O)NC1CC1 | 13.1 (≈ 42.4 µM) |
| Cc1n[nH]c(=S)n1-c1ccc(Cl)cc1 | > 33.9 |
| COc1ccccc1CNc1ccc(N2CCCCC2)cc1 | 30 (≈ 101 µM) |
| CCOc1ccc(CCNC(=O)c2cc(C)on2)cc1OCC | > 47.8 |
| COc1ccc(NC(=O)C2CC2)cc1OC1CCCC1 | 16 (≈ 58.1 µM) |
| CN(C)/C=C/C(=O)c1ccc(Cl)s1 | > 32.4 |
| Cc1cccc(N(C)S(=O)(=O)c2ccc3c(c2)NC(=O)CC(=O)N3)c1 | > 53.9 |
| COCCN1Cc2cc(=O)n3c([nH]c4ccccc43)c2C1=N | 5.1 (≈ 17.2 µM) |
| COC(=O)c1cc2occc2n1Cc1nc(-c2ccccc2F)oc1C | 1.4 (≈ 3.95 µM) |
| Cc1ccc(N=C2NC(=O)/C(=C/c3cccn3C)S2)cc1 | 2 (≈ 6.73 µM) |
| Cc1ccc(/C(O)=C/c2nc3cc(C)ccc3oc2=O)cc1 | 12 (≈ 40.9 µM) |
| OC1/C(=C/c2ccc(Cl)cc2Cl)N2CCC1CC2 (stereo not given) | 28 (≈ 98.5 µM) |
| CC(=O)NC(=S)Nc1ccccc1F | > 31.8 |
| CC(C)(CNc1ccc([N+](=O)[O-])cc1Cl)N1CCOCC1 | 1.4 (≈ 4.46 µM) |
| O=c1[nH]c(-[n+]2ccccc2)c(/C=N/N=C(\[O-])c2ccccc2)s1 | > 48.7 |
| Cc1ccc(S(=O)(=O)C2(C(=O)NC3CCCCC3C)CC2)cc1 (stereo not given) | 37.3 (≈ 111 µM) |
| O=C(CNc1cccc([N+](=O)[O-])c1)NC(=O)NC1CCCCC1 | 30 (≈ 93.6 µM) |
| Cc1ccc(NC(=S)N2CCCC(c3nc4ccccc4[nH]3)C2)cc1 (stereo not given) | 2.3 (≈ 6.56 µM) |
| CC(=O)c1ccc(N2C(=O)CC(N3CCN(S(=O)(=O)c4cc(C)ccc4C)CC3)C2=O)cc1 (stereo not given) | 56.9 (≈ 121 µM) |
| Cc1ccnc(NS(=O)(=O)c2ccc3ccccc3c2)n1 | 28.1 (≈ 93.9 µM) |
| O=C(N/C(=C/c1ccco1)C(=O)N1CCOCC1)c1cccs1 | > 49.9 |
| CC1(c2ccc3ccccc3c2)NC(=O)N(CC(N)=O)C1=O (stereo not given) | > 44.6 |

| SMILES | solubility kinetic [µg/mL] |
| --- | --- |
| CCC1CCCCN1S(=O)(=O)c1ccccc1 (stereo not given) | 31.5 (≈ 124 µM) |
| Oc1ccc(/C=C/c2ccc3cccc(O)c3n2)cc1Br | 1.1 (≈ 3.21 µM) |
| Cc1ccc(C(=O)NC2CCN(C(=O)Nc3ccc(F)cc3)CC2)cc1 | 0.6 (≈ 1.69 µM) |
| O=C(CSc1ncccn1)NCc1cccc(Cl)c1 | > 44.1 |
| O=C(COC(=O)/C=C/c1ccccc1[N+](=O)[O-])Nc1ccc2[nH]c(=O)[nH]c2c1 | 10 (≈ 26.2 µM) |
| CCOc1ccccc1C(=O)NN1CCOCC1 | > 37.5 |
| Fc1ccc(-c2nnc(N3CCOCC3)c3ccccc23)cc1F | > 49.1 |
| O=C(COC(=O)c1cccc(O)c1)Nc1ccc(OC(F)F)cc1 | 46.2 (≈ 137 µM) |
| CCNC(=S)N1CCN(S(=O)(=O)c2ccc(Cl)s2)CC1 | 31.4 (≈ 88.7 µM) |
| Cc1cc(C)cc(N=C2NC(=O)CS2)c1 | > 33 |
| CCN1CCN(S(=O)(=O)c2c(C)cc(C)cc2C)CC1 | > 44.5 |
| CCc1ccc(OCCCCCn2ccnc2)cc1 | 19.5 (≈ 75.5 µM) |
| FC(F)(F)c1cc(Nc2ccccc2)nc(-c2ccccn2)n1 | 2.9 (≈ 9.17 µM) |
| COc1ccc(CSC2=CS(=O)(=O)c3ccccc3N2)cc1 | 9.8 (≈ 29.4 µM) |
| CCOC(=O)c1sc(=S)n(-c2ccc(OC)cc2)c1C | 18.1 (≈ 58.5 µM) |
| COc1ccc(Sc2nc(-c3ccccc3)ncc2OC)cc1 | < 0.3 |
| CNC(=O)CSc1nc(-c2ccccc2)c(-c2ccccc2)o1 | 3.3 (≈ 10.2 µM) |
| CC(CC(=O)Nc1ccccc1)n1ccnc1 (stereo not given) | > 34.4 |
| C=CCSc1nc(C)cc2c1C(=O)OC2 | > 33.2 |
| N#Cc1cn(Cc2ccccc2)c(=O)[nH]c1=O | > 34.1 |
| O=C(CNC(=O)c1cccc(F)c1)NC1CC1 | > 35.4 |
| CC(C)Oc1ccc(C(=O)Nc2ccc3c(c2)n(C)c(=O)n3C)cc1 | 13.5 (≈ 39.8 µM) |
| O=C(NCc1ccccc1)C12CC3CC(CC(Cl)(C3)C1)C2 | 5 (≈ 16.5 µM) |
| Cc1ccc2[nH]c3c(c2c1)SC(C)(C)CC3=O | 0.8 (≈ 3.26 µM) |

| SMILES | solubility kinetic [µg/mL] |
| --- | --- |
| O=C(CNS(=O)(=O)c1ccc(F)c(Cl)c1)N1CCCC1 | 44.1 (≈ 137 µM) |
| Cc1ccccc1CNC(=O)C1CCC(=O)N(C2CC2)C1 (stereo not given) | 36.8 (≈ 129 µM) |
| Cc1ccnc(N2C3CCC2CC(O)(c2ccccc2)C3)n1 (stereo not given) | > 44.3 |
| COc1ccc(C(=O)COC(=O)c2c(C)noc2C)cc1Cl | 2.9 (≈ 8.96 µM) |
| COC(=O)c1ccc(S(=O)(=O)NCc2ccco2)o1 | 38.8 (≈ 136 µM) |
| O=C(N/N=C/c1ccccc1C(F)(F)F)c1ccc(O)cc1 | > 46.2 |
| N#Cc1c(C(F)(F)F)cc(-c2cccs2)nc1N1CCCCC1 | < 0.2 |
| CC(=O)Nc1ccc2c(c1)nc(CCNC(=O)c1ccco1)n2C | 48.2 (≈ 148 µM) |
| Cc1cccc(NC(=O)C(c2ccccc2Cl)N2CCOCC2)c1 (stereo not given) | 48.9 (≈ 142 µM) |
| O=C(c1ccc(Cl)cc1)N(c1ccccn1)C1CCCCC1 | 41.5 (≈ 132 µM) |
| CS(=O)(=O)N1CCN(c2ccc([N+](=O)[O-])cc2C(F)(F)F)CC1 | 39.9 (≈ 113 µM) |
| C[C@@H](C(=O)N1CCN(c2ccccc2)CC1)N1C(=O)C2CC=CCC2C1=O (stereo not given in full) | > 55.1 |
| CC(Cc1ccccc1)NC(=S)CN1CCCC1=S (stereo not given) | 38.9 (≈ 133 µM) |
| CCN(C(=S)NC(=O)C1CCCC1)C1CCCCC1 | > 42.4 |
| COC(=O)c1sc(SC)c(S(=O)(=O)C(C)C)c1N | 3.8 (≈ 12.3 µM) |
| Cc1cc(Br)cc(Cl)c1OC(=O)c1ccncc1 | 9.5 (≈ 29.1 µM) |
| CCC(C)NC(=O)C1=CCN(S(=O)(=O)c2ccc(C)cc2)CC1 (stereo not given) | 43.5 (≈ 129 µM) |
| Cc1ccc(NC(=O)Cc2c(O)c3ccccc3[nH]c2=O)c(C)c1 | 23 (≈ 71.3 µM) |
| CCc1ccc(C(=O)Nc2nc(C)cs2)s1 | 32.9 (≈ 130 µM) |
| CCSS(=O)(=O)c1cccc2cccnc12 | > 38 |
| CC1=CC(C)C(COC(=O)CN2CCCCC2)C(C)C1 (stereo not given) | 8.4 (≈ 30.1 µM) |
| COC(=O)c1cc(S(=O)(=O)N(C)C2CCCCC2)c[nH]1 | > 45.1 |
| O=C(O)C1CCCN1C1=NS(=O)(=O)c2ccccc21 (stereo not given) | > 42 |
| Cc1cc(C)c2c(CN3CCC(C)CC3)cc(=O)oc2c1 | 4.3 (≈ 15.1 µM) |

| SMILES | solubility kinetic [µg/mL] |
| --- | --- |
| NS(=O)(=O)c1ccc(CNC(=O)/C=C/c2cccc([N+](=O)[O-])c2)cc1 | 14.2 (≈ 39.3 µM) |
| Cc1onc(-c2ccccc2Cl)c1C(=O)N1CCC(C(N)=O)CC1 | 50.7 (≈ 146 µM) |
| Cc1ccc(S(=O)(=O)Nc2ccc(F)c(S(=O)(=O)N3CCOCC3)c2)cc1 | > 62.2 |
| Cc1cc(C)c(CN2CCC(CO)(CCOc3ccccc3)CC2)cc1C | 38.6 (≈ 105 µM) |
| CCc1cc2c(SC(C)C(=O)NC3CCCC3)ncnc2s1 (stereo not given) | 34.4 (≈ 103 µM) |
| COc1ccc(NC(=O)CNc2ccc(C#N)cc2)cc1 | > 42.2 |
| COc1cccc(OC)c1C(=O)Nc1cccc(-c2nc3ccccc3[nH]2)c1 | 11.1 (≈ 29.7 µM) |
| CC(=O)Nc1ccc2nc(-c3ccco3)[nH]c2c1 | > 36.2 |
| O=C(CS(=O)c1ccc(F)cc1)N1CCOCC1 (stereo not given) | > 40.7 |
| CCc1ccc(NC(=O)N2CCCCCC2)cc1 | 31.9 (≈ 129 µM) |
| CCOC(=O)c1cc2c(ccn2C)n1Cc1ccccc1Cl | < 0.3 |
| CC(C)NCc1nnc(-c2ccccc2Cl)o1 | > 37.8 |
| CCOc1c(N2CC(C)OC(C)C2)c(=O)c1=O (stereo not given) | > 35.9 |
| CC(=O)NC(CC(=O)N1CCN(C(C)=O)CC1)c1ccccc1 (stereo not given) | > 47.6 |
| COc1cccc(C2(C#N)CCN(C)CC2)c1 | > 34.5 |
| CCOc1ccccc1NC(=O)NCc1ccc2c(c1)OCO2 | 0.8 (≈ 2.55 µM) |
| CNC(=O)COC(=O)c1ccc(Cl)c(S(N)(=O)=O)c1 | > 46 |
| CCSc1nc2sc3c(c2c(=O)n1-c1ccccc1C)CCN(C)C3 | 53.7 (≈ 145 µM) |
| COc1ccc(C(=O)OCC(=O)Nc2c(C)cccc2C)cc1 | < 0.7 |
| CC1=C(C(=O)OCc2ccccc2)C(c2cccc(F)c2)NC(=O)N1 (stereo not given) | 2.5 (≈ 7.35 µM) |
| CN(CC(=O)NCCc1ccccc1)Cc1ccco1 | > 40.9 |
| O=C(COc1ccc(Cl)cc1Cl)NCC1(N2CCOCC2)CCCCC1 | 1.9 (≈ 4.73 µM) |
| O=C(Nc1ccccc1Oc1ccccc1)C1=COCCO1 | 34.3 (≈ 115 µM) |
| CN(CCC#N)C(=O)CC1(Cc2ccccc2)CCOC(C)(C)C1 (stereo not given) | > 49.3 |

| SMILES | solubility kinetic [µg/mL] |
| --- | --- |
| CCOC(=O)c1sc(CS(=O)(=O)c2ccc(Cl)cc2)nc1C | 6.1 (≈ 17 µM) |
| COc1ccccc1CNC(=O)c1cc(C(C)=O)c[nH]1 | 25.1 (≈ 92.2 µM) |
| CC1CCCC(NC(=O)COC(=O)[C@@H](NC(=O)c2ccccc2Cl)C(C)C)C1C (stereo not given in full) | 46.1 (≈ 109 µM) |
| CCCCC(=O)Nc1cccc(C(C)O)c1 (stereo not given) | > 33.2 |
| O=C(NCc1ccncc1)NC1CCCCC1 | > 35 |
| CC(C)(Oc1ccc(CCNC(=O)c2ccc(Cl)cc2)cc1)C(=O)O | > 54.3 |
| CC(NC(=O)CN(C)Cc1cccc(Cl)c1)c1ccccc1 (stereo not given) | 38.6 (≈ 122 µM) |
| NC(=O)c1ccccc1OCc1cccc2ccccc12 | 2.9 (≈ 10.5 µM) |
| CC(=O)Nc1ccc(OC(=O)N(C)c2ccc(C)cc2)cc1 | > 44.8 |
| CCN(Cc1ccccc1)C(=O)COC(=O)c1cc(Cl)nc(Cl)c1 | > 55.1 |
| Cc1ccsc1C(=O)OCC(=O)NC1CCCC(C)C1C (stereo not given) | 11.3 (≈ 36.5 µM) |
| CCc1nc(=O)c(-c2ccccc2)c(C)n1-c1ccccc1 | > 43.6 |
| O=C(NCc1ccc(Cl)cc1)N1CCc2ccccc2C1 | 4.5 (≈ 15 µM) |
| Cc1cc(NC(=O)CC(C)C)c(=O)n(Cc2cccc(F)c2)c1 | 43.7 (≈ 138 µM) |
| COc1ccc(OC)c(S(=O)(=O)N2CCc3ccccc3C2)c1 | 22.1 (≈ 66.3 µM) |
| COc1cccc2cc(C(=O)OCC(=O)N3CC(C)OC(C)C3)c(=O)oc12 (stereo not given) | > 56.3 |
| COc1ccc2oc(C(=O)OCC(=O)N3CCCCC3C)c(C)c2c1 (stereo not given) | > 51.8 |
| O=c1[nH]cnc2ncc(-c3ccc(O)cc3)nc12 | > 36 |
| CCC(C(=O)Nc1c(C)cc(C)cc1C)N1CCCCCC1 (stereo not given) | 41 (≈ 136 µM) |
| C=CCSC1=NN2CCS(=O)(=O)N=C2S1 | > 39.5 |
| CC(C)c1ccc(NC(=O)N2C[C@H]3C[C@@H](C2)c2cccc(=O)n2C3)cc1 | > 52.7 |
| CCn1c(=O)c(C(=O)Nc2ccccc2)c(O)c2ccccc21 | < 0.3 |
| CC(C)(C)C(=O)Nc1ccc(S(=O)(=O)NC2=NCCCCC2)cc1 | > 52.7 |
| O=c1[nH]cc(COCC(F)CCl)c(=O)[nH]1 (stereo not given) | > 35.5 |
